Assay results taken from patent US20210213010A1, “TLR7/8 AGONISTS AND LIPOSOME COMPOSITIONS” (Torque Therapeutics, Inc., priority 2018, published 2021).
“Also recorded” adds a separate entry of the source. Each block holds one compound with its values, some of them ahead of it.

Columns and labels:
[1] = Remote loading efficiency of small molecules into liposomes (PD-10 size exclusion, HPLC); format: physicochemical; settings: for Remote loading efficiency 1 h (%): drug/lipid ratio 0.10, 1 h; for Remote loading efficiency 3 h (%): drug/lipid ratio 0.10, 3 h
In short: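 A lyophilized small-molecule powder (modified TLR agonist) was combined with liposome formulation at the desired drug/lipid ratio and stirred at elevated temperature. At 1 h and 3 h, 100 μL of mixture plus 900 μL buffer (25 mM HEPES, 10 vol % sucrose, pH 7.4) went onto a PD-10 size exclusion column. Ten 1 mL fractions were collected, and HPLC quantified compound in the liposome fractions as a percentage of the amount applied.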

whole human blood [2] = experiment: IL-6 cytokine expression in stimulated whole human blood (ELISA); format: cell-based
Procedure: (§1) This example describes the general procedure used to assess the level of cytokine IL-6 and IL-12p40 expressions upon stimuli of whole human blood with small molecules or small molecules in liposomal formulations F1 and F2. 10 mM DMSO solutions of the small molecules were diluted in RPMI media (RPMI-1640, Sigma Aldrich) with 1% penicillin/streptomycin (p/s). […], of each dilution was transferred to Nunc™ 96-Well Polystyrene Conical Bottom MicroWell™ Plates in duplicates. Blood was drawn from two human donors, diluted in RPMI with 1% p/s and added to each well to reach final concentrations of 10 μM, 1 μM, and 0.1 μM of the small molecules. The plates were incubated at 37° C. in a cell incubator for 24h. The plates were then spun down in a plate centrifuge with 3200 revolutions per minute (rpm) for 10 min before 50 uL of the supernatant was transferred to new 96-well plates. The supernatant samples were subsequently stored at −80° C. until the day of cytokine measurements.
(§2) The level of cytokine expression was measured using either an IL-6 ELISA Kit (RnDSystems, cat #DY206) for IL-6, or an IL-12p40 ELISA Kit (RnDSystems, cat #DY1240) according to the manufacturer's protocols. This general procedure was used to generate the examples 24-33.

whole human blood [3] = experiment: IL-12p40 cytokine expression in stimulated whole human blood (ELISA); format: cell-based; settings: drug/lipid ratio 0.1
Procedure: as §1, §2

RAW-Blue cells = experiment: NF-κB induction in RAW-Blue reporter cells (RAW 264.7 macrophages, SEAP); format: cell-based; settings: RAW-Blue; sigmoidal 4PL fitting, 24 h
In short: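 RAW 264.7 macrophages with NF-κB-inducible SEAP, 100×10^3 cells/well, exposed to compound dilutions (from DMSO stocks in PBS) for 24 h at 37 °C, triplicate. Supernatant SEAP read with QUANTI-Blue at 640 nm after 3–6 h, normalized to DMSO blank; EC50 from 4PL fits.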

B16-F10 tumor [4] = experiment: B16-F10 tumor model with adoptive cell transfer of PMEL cells (Example 80); format: in vivo, mouse; settings: for Weight of tumor bearing mice: versus HBSS, PMEL alone and PMEL loaded with Gdq liposomes
Procedure: Spleens and lymphnodes were harvested from PMEL mice (B6. Cg-Thy1^a/Cy Tg(TcraTcrb)8Rest/J, Jackson Labs) and CD8 T cells purified by Mylteni MACS T cell separation kit. PMEL cells were stimulated and expanded on anti-CD3/CD28 coated plates with mouse IL2/IL7/IL21 cytokines, harvested and loaded with liposomes for evaluation in vivo. PMEL cells at 50×10^6/mL were incubated with liposomes at 10 mM lipid concentration for 60 minutes at 37 C, washed twice and formulated in HBSS prior to injection into the mice. In vivo study details show below. Briefly, 100 ul of 0.5×10^6 B16-F10 cells formulated in HBSS were injected SubQ (SQ) or intra-dermal (ID) and grown for 9 days prior to treatment. 1 day prior to treatment, 4 mg/mouse of cyclophosphamide (CPX) was injected intraperitoneal (IP) with 200 ul at 20 mg/mL in phosphate buffered saline (PBS). There were 10 mice used per group and all treatments were injected intravenous (IV) via tail vein injection, the groups were as follows: • HBSS alone (single dose) • 20×10^6 PMEL cells/mouse (single dose) • 20×10^6 PMEL cells/mouse backpacked with 2.5 antiCD45 Ab/liposome, 10% DOTAP, 35% cholersterol, 0.6% DSPE-PEG, POPC, pH gradient loaded as previously described with Gardiquimod (˜200 nmol Gardiquimod/mouse, single dose) • 20×10^6 PMEL cells/mouse followed by 4 mg/kg Gardiquimod systemically on day 0 (treatment day, day 6, day 13, day 25 • 20×10^6 PMEL cells/mouse followed by 2 mg/kg KRJ2-110 systemically on day 0 (treatment day), day 6, day 13, day 25

[5] = Cytokine/chemokine release kinetics in blood of non-tumor bearing B6D2F1/J mice (Luminex); format: in vivo, mouse; settings: single dose; 4 mg/kg Gdq or 2 mg/kg KRJ2-110 systemic, or loaded PMEL cells; 0-24 hr
Procedure: Spleens and lymphnodes were harvested from PMEL mice (B6. Cg-Thy1^a/Cy Tg(TcraTcrb)8Rest/J, Jackson Labs) and CD8 T cells purified by Mylteni MACS T cell separation kit. PMEL cells were stimulated and expanded on anti-CD3/CD28 coated plates with mouse IL2/IL7/IL21 cytokines and harvested for use. The cytokine/chemokine release profile in non-tumor bearing B6D2F1/J mice (Jackson Labs) was evaluated by injecting: • 20×10^6 PMEL cells alone, 20×10^6 PMEL cells loaded with 2.5 ant-CD45 Ab/liposome, 10% DOTAP, 35% cholesterol, 0.6% DSPE-PEG, POPC liposomes Gardiquimod pH gradient loaded as previously described (˜200 nmol gardiquimod, single dose) • 4 mg/kg Gdq systemic (no PMEL, single dose) • 2 mg/kg KRJ2-110 systemic (no PMEL, single dose)
Blood was drawn at 0, 0.25, 0.5, 1, 2, 4, 6, 10 and 24 hr and plasma was recovered for cytokine/chemokine quantitation using a Luminex kit. […] IP10 and TNFa are commonly used biomarkers for TLR7 agonists in human studies indicating these may be useful biomarkers in clinical studies for T cells loaded with TLR7 agonists.

[6] = Cryo-TEM of remote loaded liposomes (intraliposomal precipitation); format: physicochemical; settings: remote loaded liposomes, Example 75
Procedure: CryoTEM samples of 3 μL of liposome solution was placed on a lacy carbon 300 mesh copper TEM grid, blotted and plunge frozen in liquid ethane using a FEI Vitrobot Mark IV. Samples were imaged using a FEI Tecnai G2 20 TWIN transmission electron microscope operated at 200 keV in low dose mode with a FEI High-Sensitive (HS) 4 k×4 k Eagle camera.

RAW Blue cells = experiment: Potency of TLR7 agonist compound library in RAW Blue TLR reporter cells; format: cell-based; settings: fold more potent
Procedure: A general synthesis scheme is shown in FIG. 1A according to the procedure by Wu et al. Immunotherapeutic activity of a conjugate of a Toll-like receptor 7 ligand. Proc. Natl. Acad. Sci. 104, 3990-3995 (2007), with some modifications and in good yields. Final derivatization using standard amide bond formation or reductive amination conditions, gave the desired library of 22 compounds divided into two sets (set 1, 1a-1j and set 2, 2a-2j). Next it was evaluated if the synthesized compounds had retained their activity upon derivatization. As benchmarks, the known TLR agonists Gardiquimod (Gdq, TLR7) and Resiquimod (R848, TLR7/8) were used.

B16-F10 tumor [7] = experiment: In vivo immune profiling by flow cytometry in B16-F10 tumor bearing mice (Example 87); parameters: species or system mouse
Procedure: Spleens and lymphnodes were harvested from PMEL mice (B6. Cg-Thy1^a/Cy Tg(TcraTcrb)8Rest/J, Jackson Labs) and CD8 T cells purified by Mylteni MACS T cell separation kit. PMEL cells were stimulated and expanded on anti-CD3/CD28 coated plates with mouse IL2/IL7/IL21 cytokines, harvested and loaded with liposomes for evaluation in vivo. PMEL cells at 50×10^6/mL were incubated with liposomes at 10 mM lipid concentration for 60 minutes at 37 C, washed twice and formulated in HBSS prior to injection into the mice. Briefly, 100 ul of 1×10^6 B16-F10 cells formulated in HBSS were injected SubQ (SQ) and grown for 10 days prior to treatment. 1 day prior to treatment, 4 mg/mouse of cyclophosphamide (CPX) was injected intraperitoneal (IP) with 200 ul at 20 mg/mL in phosphate buffered saline (PBS). There were 10 mice used per group and all treatments were injected intravenous (IV) via tail vein injection, the groups were as follows: • HBSS alone (single dose) • 20×10^6 PMEL cells/mouse (single dose) • 20×10^6 PMEL cells/mouse backpacked with 1.5% Arg3-Chol, 10% DSTAP, 35% cholesterol, 0.5% DSPE-PEG, DSPC, pH gradient loaded as previously described with KRJ2-110 (single dose) • 20×10^6 PMEL cells/mouse followed by 2 mg/kg KRJ2-110 systemically on day 0 (small molecule delivered 1 hr after cell dose)
Blood was sampled at 24 hr, 4 days and 7 days for plasma isolation and cytokine/chemokine characterization by Luminex. Tissues and organs were harvested on day 4 and 7 for analysis by flow cytometry and Luminex.

[8] = amine in conjugation with the aromatic system; cited from earlier work

Remote loading efficiency 1 h (%) ([1]; formulation F1, HEPES): 89% | Remote loading efficiency 3 h (%) ([1]; formulation F1, HEPES): 92% | Remote loading efficiency 1 h (%) ([1]; formulation F2, HEPES): 89% | Remote loading efficiency 3 h (%) ([1]; formulation F2, HEPES): 92% | EC50 (RAW-Blue cells): 1.67 µM | Weight of tumor bearing mice (B16-F10 tumor [4]): more substantial weight loss
SMILES: CCNCc1nc2c(N)nc3ccccc3c2n1CC(C)(C)O [Gardiquimod, reference compound]
Expression of IL-6 upon stimulation of whole human blood (whole human blood [2]; free small molecule, 10, 1, 0.1 μM, 24 h, two donors): induced expression of IL-6 at 10 μM in donor 2 | Expression of IL-6 upon stimulation of whole human blood (whole human blood [2]; remote loaded in formulation F1, HEPES, drug/lipid ratio 0.1): No induction of IL-6 expression | Expression of IL-6 upon stimulation of whole human blood (whole human blood [2]; remote loaded in formulation F2, HEPES, drug/lipid ratio 0.1): capable of inducing expression of IL-6 at 10 μM; also recorded: capable of inducing expression of IL-6 in both donors; also recorded: the most potent | Expression of IL-12p40 upon stimulation of whole human blood (whole human blood [3]; remote loaded in formulation F1, HEPES): none of the small molecules Gardiquimod, MK087, MK088, and MK089 were capable of inducing expression of IL-12p40 | Expression of IL-12p40 upon stimulation of whole human blood (whole human blood [3]; remote loaded in formulation F2, HEPES): capable of inducing expression of IL-12p40 in one donor at 10 μM | Proinflammatory cytokines such as IFNg, IL12 in blood [5]: significant increase in proinflammatory cytokines

Crystallization within liposomes (Cryo-TEM) [6]: crystallizes inside the liposomes | Weight of tumor bearing mice (B16-F10 tumor [4]): more substantial weight loss
SMILES: COCCOc1nc(N)c2nc(O)n(Cc3ccc(CN)cc3)c2n1 [KRJ2-110, 6-amino-9-(4-(aminomethyl)benzyl)-2-(2-methoxyethoxy)-9H-purin-8-ol]
In vitro potency in a RAW cell assay relative to Gardiquimod (RAW Blue cells): ~10 × | B16-F10 tumor growth after adoptive cell transfer (B16-F10 tumor [4]; PMEL cells plus 2 mg/kg KRJ2-110 or 4 mg/kg Gardiquimod systemically, or liposome loaded PMEL): more efficacious | Proinflammatory cytokines such as IFNg, IL12 in blood [5]: significant increase in proinflammatory cytokines | Activation of PMEL T cells in LN (B16-F10 tumor [7]; 4 and 7 days after ACT): Increases activation of PMEL T cells in LN | Exhaustion of PMEL cells (PD1+/LAG3+) (B16-F10 tumor [7]; 4 and 7 days after ACT): Slightly increases exhaustion | MHCII expression in the tumor (B16-F10 tumor [7]; 4 and 7 days after ACT): Increases MHCII expression in the tumor | Monocytic and Granulocytic MDSC density in the tumor (B16-F10 tumor [7]; 7 days after ACT): Does not markedly affect MDSC | Abundance of cDC1 and pDC in the tumor (B16-F10 tumor [7]; after ACT): Transiently increases the abundance of cDC1 and pDC | Proliferation of PMEL T cells (Ki67) (B16-F10 tumor [7]; blood, spleen and tumor, 4 days after ACT): Virtually no effect on PMEL T cell proliferation

EC50 (RAW-Blue cells): 0.15 µM
SMILES: CCOCc1nc2c(N)nc3ccccc3c2n1CC(C)(C)O [R848, Resiquimod, reference compound]
pKa of the conjugate acid [8]: approximately 4
